# Data as given in publication PMC11189555, “Aryl amino acetamides prevent Plasmodium falciparum ring development via targeting the lipid-transfer protein PfSTART1” (Nature Communications, 2024).
# Where “and” joins values, the source holds several entries; their conditions need not be identical. Equal entries are not always repeated. Entries after “also recorded” stand apart in the source; their conditions may differ.
# How the values were obtained:
# [1] = test system: PfSTART1; test: PfSTART1 knock-down by glucosamine (glmS riboswitch), Western blot densitometry; assay type: cell-based, Plasmodium falciparum; settings: 2.5 mM GlcN; for START densitometry, Norm 0 mM [EXP2]: one value per biological replicate; for START densitometry, norm 0/EXP2: START band normalised to EXP2, then to 0 mM GlcN of the same line; for START densitometry, norm 0/EXP2 / START densitometry, norm 0/HSP / START densitometry, norm 3D7, EXP2 / START densitometry, norm 3D7, HSP70: 3 biological replicates; for START densitometry, norm 0/HSP: START band normalised to HSP70, then to 0 mM GlcN of the same line; for START densitometry, norm 3D7, EXP2: START/EXP2 relative to 3D7 at 0 mM GlcN (=1.00E+02); for START densitometry, norm 3D7, HSP70: START/HSP70 relative to 3D7 at 0 mM GlcN (=1.00E+02); for PfSTART1 knockdown: 48 h
# Method: Parasites were prepared for the stage of interest and proteins were extracted using a saponin-lysis (unless indicated otherwise). For knock-down assays, parasites were exposed to 0 or 2.5 mM GlcN for 48 h (starting from late schizont/early rings): the day before harvesting schizonts, 30 nM ML10 (LifeArc) was also added to the cultures to block egress. Infected red blood cells were lysed 10 min on ice with 0.1% saponin in PBS complemented with 1x Protease Inhibitors Cocktail (Roche; PBS + PI). Parasites were pelleted and washed with PBS + PI to remove haemoglobin. […] Protein samples were centrifuged at 15,000 g, then run on a pre-cast 4-12% NuPAGE Bis-Tris gel (Invitrogen) and proteins were transferred onto a nitrocellulose membrane using iBlot (Invitrogen). Membranes were exposed to the primary antibody overnight at 4 °C, to the secondary antibody 1 h at room temperature, and fluorescence was measured using an Odyssey imaging system, which was also used to measure densitometry. The list of antibodies used, their dilution, and origins are described in Table S3.
# [2] = test system: P. falciparum oocysts in mosquito midguts; test: Standard membrane feeding assay: oocysts in mosquito midguts (Walter and Eliza Hall Institute); assay type: in vivo, Plasmodium falciparum; settings: for Oocyst counts from individual mosquitoes: 30 mosquitoes dissected
# Method: (§1) These assays were performed at the Walter and Eliza Hall Institute and at the London School of Hygiene and Tropical Medicine using slightly different approaches which are described in the Supplementary Information. […]
# were aspirated into a cup and anesthetized by cooling to 4 °C until immobilized and kept on ice for the dissection. The mosquitoes were then dissected as previously described 12 and collected midguts were maintained in 1X PBS (Gibco) until they were stained with mercurochrome for 20 mins. […]
# [3] = test system: stage IV-V gametocytes; test: Standard membrane feeding assay: stage V gametocytes on day 17; assay type: cell-based, Plasmodium falciparum; settings: days 14-17; for Percentage of Stage V gametocytes: Fig 7C, untreated 4.75
# Method: as §1
# (§2) Gametocyte culturing and standard membrane feeding assay (London School of Hygiene and Tropical Medicine). P. falciparum NF54 gametocytes were prepared for blood-feeding to mosquitoes according to the method described by 13, with some slight modifications. Briefly, gametocyte cultures seeded at 2% overall parasitaemia and 4% haematocrit were maintained at 37 °C for 17 days with daily media changes.
# (§3) Gametocyte functional viability was assessed by ex-flagellation assay at day 14 post induction, observed by light microscopy. An. stephensi (SD500 strain) were reared as […]
# (§4) Gametocyte aliquots from a single NF54 culture, produced as above, were incubated […]
# (§5) or culture medium only (no -drug control) from day 14 until day 17 when SMFA was carried out. Fresh drug -containing media was provided each day during this exposure.
# Pots of 70 -80 two- to five-day old female An. stephensi mosquitoes were allowed to feed on 500 µL of the respective culture+drug mixture, presented to each pot in a pre - heated 3D -printed water channel membrane feeder 15, until fully fed. Mosquitoes were placed in an incubator at standard conditions and midguts dissected in 0.25% mercurochrome stain for oocyst counts by light microscopy 7-8 days post-feed. […]
# [4] = test system: P. falciparum NF54 gametocytes fed to An. stephensi; test: Standard membrane feeding assay (London School of Hygiene and Tropical Medicine); assay type: in vivo, Plasmodium falciparum; settings: W-991 1, 50, 100 nM; second insectary; Fig S7C-D
# Method: as §1, §2, §3, §4, §5
# Pots of 70 -80 two- to five-day old female An. stephensi mosquitoes were allowed to feed on 500 µL of the respective culture+drug mixture, presented to each pot in a pre - heated 3D -printed water channel membrane feeder 15, until fully fed. […]
smiles,measurement,setting,value
"N[C@H]1C(O)O[C@H](CO)[C@@H](O)[C@@H]1O (stereo partly drawn) [GlcN, glucosamine]","START densitometry, Norm 0 mM [EXP2]",[1]; 3D7,1.02E+02 and 1.14E+02 and 9.72E+01
same,"START densitometry, norm 0/EXP2",[1]; 3D7 parasites,1.29E+02 and 9.38E+01 and 8.16E+01
same,"START densitometry, norm 0/HSP",[1]; 3D7 parasites,1.32E+02 and 1.01E+02 and 9.77E+01
same,"START densitometry, norm 3D7, EXP2",[1]; 3D7 parasites,1.29E+02 and 9.38E+01 and 8.16E+01
same,"START densitometry, norm 3D7, HSP70",[1]; 3D7 parasites,1.32E+02 and 1.01E+02 and 9.77E+01
same,"START densitometry, norm 0/EXP2",[1]; CR-N309K parasites,1.17E+01 and 2.98E+01 and 1.90E+01
same,"START densitometry, norm 0/HSP",[1]; CR-N309K parasites,2.14E+01 and 2.66E+01 and 2.27E+01
same,"START densitometry, norm 3D7, EXP2",[1]; CR-N309K parasites,1.40E+01 and 3.50E+01 and 1.71E+01
same,"START densitometry, norm 3D7, HSP70",[1]; CR-N309K parasites,1.73E+01 and 1.93E+01 and 2.63E+01
same,PfSTART1 knockdown,[1]; CR-N309K schizonts,81%
same,"START densitometry, norm 0/EXP2",[1]; CR-N330K parasites,1.02E+01 and 3.10E+01 and 7.15E+00
same,"START densitometry, norm 0/HSP",[1]; CR-N330K parasites,2.77E+01 and 2.71E+01 and 1.13E+01
same,"START densitometry, norm 3D7, EXP2",[1]; CR-N330K parasites,1.13E+01 and 3.35E+01 and 1.19E+01
same,"START densitometry, norm 3D7, HSP70",[1]; CR-N330K parasites,2.31E+01 and 2.22E+01 and 2.51E+01
same,PfSTART1 knockdown,[1]; CR-N330K schizonts,84%
same,"START densitometry, norm 0/EXP2",[1]; CR-WT parasites,2.42E+01 and 2.14E+01 and 2.95E+01
same,"START densitometry, norm 0/HSP",[1]; CR-WT parasites,2.70E+01 and 2.58E+01 and 2.79E+01
same,"START densitometry, norm 3D7, EXP2",[1]; CR-WT parasites,3.52E+01 and 2.52E+01 and 2.73E+01
same,"START densitometry, norm 3D7, HSP70",[1]; CR-WT parasites,2.33E+01 and 2.02E+01 and 4.40E+01
same,PfSTART1 knockdown,[1]; CR-WT schizonts,75%
same,PfSTART1 knockdown,[1]; SLI-N309K schizonts,43%
same,"START densitometry, Norm 0 mM [EXP2]",[1]; SLI-N309K,5.39E+01 and 7.05E+01 and 4.74E+01
same,PfSTART1 knockdown,[1]; SLI-N330K schizonts,70%
same,"START densitometry, Norm 0 mM [EXP2]",[1]; SLI-N330K,2.99E+01 and 2.84E+01 and 3.23E+01
same,PfSTART1 knockdown,[1]; SLI-WT schizonts,60%
same,"START densitometry, Norm 0 mM [EXP2]",[1]; SLI-WT,5.15E+01 and 2.89E+01 and 3.95E+01
CC(C)(Nc1ccc(Cl)c(S(=O)(=O)N2CCOCC2)c1)C(=O)Nc1ccc(F)c(Cl)c1 [W-991],reduction of the number of oocysts compared to untreated control,"[2]; 100 nM W-991, oocysts counted 7 days after feeding",> 20 fold
same,Oocyst counts from individual mosquitoes,[2]; W-991 1 nM,38 and 56 and 49 and 30 and 0 and 4 and 7 and 9 and 6 and 8 and 12 and 35 and 22 and 20 and 13 and 50 and 15 and 10 and 31 and 18 and 11 and 24 and 1
same,Oocyst counts from individual mosquitoes,[2]; W-991 50 nM,9 and 3 and 23 and 27 and 20 and 4 and 12 and 0 and 7 and 10 and 2 and 31 and 22 and 1 and 17
same,Oocyst counts from individual mosquitoes,[2]; W-991 100 nM,6 and 0 and 2 and 16 and 24 and 8 and 11 and 5 and 1 and 7 and 12
same,oocysts per mosquito,"[2]; W-991 1, 50, 100 nM, day 7 after feeding",dose-dependent decrease in oocysts per mosquito
same,Percentage of Stage V gametocytes,[3]; W-991 1 nM,5%
same,Percentage of Stage V gametocytes,[3]; W-991 50 nM,5.3%
same,Percentage of Stage V gametocytes,[3]; W-991 100 nM,5%
same,effect on gametocyte development,"[3]; W-991 1, 50, 100 nM",no defect in gametocyte development; also recorded: no impact
same,transmission to mosquitoes,[4],reduction in transmission
